# Measured values taken from US20070154405A1, “AEROSOL APPARATUS CONTAINING A COMPOSITION FOR APPLYING SIMULTANEOUSLY SEVERAL TOPICAL STIMULI” (priority 2005, published 2007).
# “And” between values parts separate entries of the source, which are not always exact repeats. Identical values can stand only once.
# What was measured:
# [1] = test system: Atopic Dermatitis; assay: Clinical Study 2: randomized single blind comparison of N1 and Hydrocortisone 1% in atopic dermatitis, SASSAD severity score; assay type: in vivo, human
# From the text: The patients taking part in the clinical studies were given free kits of the aerosol apparatus of the present invention and a set of instructions detailing method of use as follows: 1) Remove clothing of the area of application. 2) If the face needs to be treated, the eyes should be closed or masked (for babies or small children) 3) Hold the apparatus at a distance of 10 cm-20 cm approximately. 4) Press the apparatus's actuator to release the water-based particles. 5) Apply for a few seconds or as needed then leave the treated areas to dry untouched. Repeat as many times as needed until the symptoms ease. 6) In chronic cases and in order to speed the healing process, apply a daily regimen of four times per day, once before bedtime until symptoms reduce or disappear.
# 125 Patients took part in a comparative, randomized, single (observer) blind, controlled clinical study.
# The scoring system used to evaluate the results of both groups is “Six area, six sign atopic dermatitis (SASSAD) severity score [Jones J B. Six area, six sign atopic dermatitis (SASSAD) severity score: A simple system for monitoring disease activity in atopic dermatitis. Br J Dermatol. 1996; 135 (Suppl 48): 25-30] […] The signs are: Dryness, lichenification, cracking, erythema, exudation and excoriation. the six areas of the body are head, neck, trunk, arms, hands, legs and feet. The severity of the lesions are assessed as 0, 1, 2 and 3 for no lesion, mild, moderate and severe lesions respectively for each sign in each body area resulting in a score of maximum 18 for each sign. The six signs were evaluated objectively by the investigating physicians. Itching being a subjective symptom was evaluated by the patient.
# The atopic dermatitis diagnosis was based on [Hanifin J. M., Rajka G. Diagnostic Features of Atopic Dermatitis, Acta Derma (Stock) Suppl. 92:44-47, 1980].
# [2] = test system: Itching (Atopic Dermatitis); assay: Clinical Study 2: itching by patient VAS in atopic dermatitis patients; assay type: in vivo, human
# From the text: 125 Patients took part in a comparative, randomized, single (observer) blind, controlled clinical study. […] The age difference for both groups of males and females was statistically insignificant t=0.551, P=0.582 and t=1.307, P=0.194 respectively. […] The similar distribution allowed for a matching analysis with no statistical difference where Chi-square test=0.001, P=0.976. Due to the subjective nature of this symptom, all the patients were given VAS (Visual analogue scale graded 0=no itch to 10=severe itch) to complete at home twice daily, once in the morning and once in the evening, on the fifth, sixth and seventh day, after allowing for a washout period of four days. Table IX clarify the mean VAS score in both groups after treatment with their respective intervention. The N1 group has experienced a significant decline in their VAS score throughout the 5th, 6th and 7th days where paired t test for the decline in the 5th day=6.96, P=0.001 and for the 6th day=6.74, P=0.001 and for the 7th day=2.76, p=0.006.
# [3] = Base score, listed as hydrocortisone
# [4] = Week 1, listed as hydrocortisone
smiles,measurement,setting,value
C[C@]12CCC(=O)C=C1CC[C@@H]1[C@@H]2[C@@H](O)C[C@@]2(C)[C@H]1CC[C@]2(O)C(=O)CO [Hydrocortisone],Mean Cracking score,[1]; Base score,1.17
same,Mean Dryness score,[1]; Base score,4.32
same,Mean Erythema score,[1]; Base score,3.6
same,Mean Excoriation score,[1]; Base score,2.7
same,Mean Exudation score,[1]; Base score,3.18
same,Mean Lichenification score,[1]; Base score,2.44
same,Mean Erythema score,[1]; [3],3.6±2.5
same,Mean Lichenification score,[1]; [3],2.44±1.7
same,Mean Dryness score,[1]; Week 1,2.9
same,Mean Erythema score,[1]; Week 1,2.9
same,Mean Excoriation score,[1]; Week 1,1.97
same,Mean Exudation score,[1]; Week 1,2.5
same,Mean Lichenification score,[1]; Week 1,1.55
same,Mean Exudation score,[1]; [4],2.5±2.4
same,Mean Lichenification score,[1]; [4],1.55±1.9
same,Mean Dryness score,[1]; Week 2,2.13
same,Mean Erythema score,[1]; Week 2,1.8
same,Mean Excoriation score,[1]; Week 2,1.6
same,Mean Lichenification score,[1]; Week 2,.82
same,Mean Lichenification score,"[1]; Week 2, listed as hydrocortisone",0.82±1.3
same,group cleared of atopic dermatitis (SASSAD score of 0 or 1),[1]; after Week One,14%
same,group cleared of Atopic dermatitis,"[1]; after two weeks treatment, total",11%
same,patients cleared from atopic dermatitis (SASSAD score=0),[1]; after week one,9 patients
same,"patients cleared from atopic dermatitis (SASSAD score=0), percent of group",[1]; after week one,3.81%
same,Mean SASSAD score,"[1]; at baseline, before treatment",17.51±7.37 and 17.52 and 17.5
same,Mean SASSAD score,"[1]; at baseline, before treatment, listed as hydrocortisone",17.52±7.37
same,group cleared of atopic dermatitis (SASSAD score of 0 or 1),[1]; at the end of Week Two,6.3%
same,Mean SASSAD score,[1]; end of week one,12.82±8.34 and 12.52±8.34 and 12.82 and 12.5
same,Mean SASSAD score,"[1]; end of week two, patients who continued treatment",8.4±6 and 8.4
same,Mean SASSAD score,"[1]; end of week two, patients who continued treatment, listed as hydrocortisone",8.4±6
same,"itch free duration, mean",[2]; 3 day self-monitoring period,1.76 ± 1.21 h
same,Mean itch VAS (0=no itch to 10=severe itch),[2]; Day 5 Evening,7.69
same,Mean itch VAS (0=no itch to 10=severe itch),[2]; Day 5 Morning,8.01
same,Mean itch VAS (0=no itch to 10=severe itch),"[2]; Day 5 Morning, listed as hydrocortisone",8.01±1.65
same,Mean itch VAS (0=no itch to 10=severe itch),[2]; Day 6 Evening,7.06
same,Mean itch VAS (0=no itch to 10=severe itch),[2]; Day 6 Morning,7.17
same,Mean itch VAS (0=no itch to 10=severe itch),[2]; Day 7 Evening,6.58
same,Mean itch VAS (0=no itch to 10=severe itch),"[2]; Day 7 Evening, listed as hydrocortisone",6.58±1.97
same,Mean itch VAS (0=no itch to 10=severe itch),[2]; Day 7 Morning,6.63
same,Mean itch VAS (0=no itch to 10=severe itch),"[2]; Day 7 Morning, listed as hydrocortisone",6.63±1.93
